The text below walks through data of patent publication US12152038B2, “Vasopressin receptor antagonists and products and methods related thereto” (Neumora Therapeutics, Inc., priority 2017, dated 2024).

Usually IC50 stands for the point on the concentration scale where inhibition reaches its midpoint.

Test [1] deals with T1, human Arginine Vasopressin Receptor 1a (AVPR1a) (Homo sapiens, UniProt P37288).
T1 construct: expressed in transfected cells; host or cells: CHO (CHO-AVPR1a, kept under G418 selection)
The experiment in a line: Vasopressin V1a receptor antagonist assay (FLIPR calcium, CHO-AVPR1a cells). It is filed as cell-based. In a few lines: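 CHO cells expressing human AVPR1a were loaded with Calcium-6 dye and preincubated with compound for 15 min at 37° C. Cells were then challenged with AVP at its daily-determined EC80, and FLIPR fluorescence was read. Compounds were tested in duplicate as 10-point 1:3 dilutions from a top final concentration of 3 μM.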

Test [2] has as its target T2, human Oxytocin Receptor (hOTR) (Homo sapiens, UniProt P30559).
T2 construct: host or cells: CHEM-1 (ready-to-assay frozen cells)
T2 sequence (P30559 1-389): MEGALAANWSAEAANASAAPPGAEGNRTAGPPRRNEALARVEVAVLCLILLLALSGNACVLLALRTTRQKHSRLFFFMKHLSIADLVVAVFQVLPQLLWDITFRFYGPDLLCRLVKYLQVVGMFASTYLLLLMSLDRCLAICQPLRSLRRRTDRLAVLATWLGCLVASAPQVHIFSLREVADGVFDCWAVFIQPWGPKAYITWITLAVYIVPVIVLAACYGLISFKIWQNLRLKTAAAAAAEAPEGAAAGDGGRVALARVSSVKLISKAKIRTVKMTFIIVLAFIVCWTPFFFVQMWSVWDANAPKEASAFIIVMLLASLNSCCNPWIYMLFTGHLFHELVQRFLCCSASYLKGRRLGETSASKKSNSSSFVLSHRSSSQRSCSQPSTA
The experiment in a line: Oxytocin receptor (OTR) antagonist assay (FLIPR calcium, CHEM-1-hOTR cells). It is filed as cell-based. In a few lines:
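CHEM-1 cells expressing human OTR were loaded with Calcium-6 dye in HBSS/20 mM HEPES and preincubated with compound (10-point, 1:3 series) for 15 min at 37° C. Cells were then challenged with oxytocin at its daily-determined EC80. Calcium fluorescence was read on FLIPR for 3 min after each addition.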

T1 sequence (P37288 whole entry): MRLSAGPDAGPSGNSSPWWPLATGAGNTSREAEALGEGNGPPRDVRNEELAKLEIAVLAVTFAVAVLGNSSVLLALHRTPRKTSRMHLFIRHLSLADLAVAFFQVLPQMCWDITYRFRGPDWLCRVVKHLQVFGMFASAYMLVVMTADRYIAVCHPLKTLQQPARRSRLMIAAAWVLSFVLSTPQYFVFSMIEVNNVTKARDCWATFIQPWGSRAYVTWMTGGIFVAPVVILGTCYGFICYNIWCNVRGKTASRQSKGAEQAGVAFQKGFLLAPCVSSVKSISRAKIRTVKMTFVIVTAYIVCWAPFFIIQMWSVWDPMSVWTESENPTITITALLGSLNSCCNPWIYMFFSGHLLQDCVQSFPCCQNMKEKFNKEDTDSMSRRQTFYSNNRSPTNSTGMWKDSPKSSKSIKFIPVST

In the case of `CCC1COc2cc(Cl)ccc2N1C(=O)N1CC2(C1)CN(c1ccc(F)cn1)C2` (single isomer, unassigned) [1-55-B], the concentration for half-maximal inhibition (IC50) in test [1] and in test [2] was less than 100 nM throughout.

As to `CC1COc2cc(Cl)ccc2N1C(=O)N1CC2(C1)CN(c1ncccc1F)C2` (single isomer, unassigned) [1-57-A], the IC50 in test [1] is less than 100 nM.

With `CC1COc2cc(Cl)ccc2N1C(=O)N1CC2(C1)CN(c1cnccn1)C2` (single isomer, unassigned) [1-58-B], the IC50 in test [1] and in test [2] was less than 100 nM each time.

Regarding `COc1ccc2c(c1)OCC(C)N2C(=O)N1CC2(C1)CN(c1ccc(F)cn1)C2` (single isomer, unassigned) [1-59-B], the half-maximal inhibitory concentration (IC50) in test [1] was less than 100 nM; in test [2], 100 to 500 nM.

For the compound `CC1COc2cc(Cl)ccc2N1C(=O)N1CC2(C1)CN(c1ccccn1)C2` (single isomer, unassigned) [1-60-B], the half-maximal inhibitory concentration (IC50) in test [1] and in test [2] was less than 100 nM in each case.

As for `CC1COc2cc(F)ccc2N1C(=O)N1CC2(C1)CN(c1cnccn1)C2` (single isomer, unassigned) [1-65-B], the IC50 in test [1] was less than 100 nM; in test [2], 100 to 500 nM.

With `CC1COc2cc(F)ccc2N1C(=O)N1CC2(C1)CN(c1ccccn1)C2` (single isomer, unassigned) [1-66-B], the results for the IC50 in test [1] and in test [2] were less than 100 nM and 100 to 500 nM, respectively.

As for `CC1COc2cc(F)ccc2N1C(=O)N1CC2(C1)CN(c1ncccc1F)C2` (single isomer, unassigned) [1-67-A], the IC50 in test [1] was less than 100 nM; in test [2] it was 100 to 500 nM.

Regarding `CC1COc2cc(Cl)ccc2N1C(=O)N1CC2(C1)CN(c1ccc(F)cn1)C2` (single isomer, unassigned) [1-73-A], in test [1], the IC50 was less than 100 nM.

For the compound `CC1COc2cc(Cl)ccc2N1C(=O)N1CC2(C1)CN(c1ccc(F)cn1)C2` (single isomer, unassigned) [1-73-B], the concentration for half-maximal inhibition (IC50) in test [1] and in test [2] was less than 100 nM in each case.

As to `O=C(N1CC2(C1)CN(c1ccc(F)cn1)C2)N1CCC(O)c2cc(Cl)ccc21` (single isomer, unassigned) [13-1-B], the IC50 in test [2] is not below 1000 nM.

As for `CC1COc2cc(Cl)ccc2N1C(=O)N1CC2(C1)CN(c1ncc(F)cn1)C2` (single isomer, unassigned) [18-2-B], the half-maximal inhibitory concentration (IC50) in test [2] was 100 to 500 nM.

Take `Cc1cnc(N2CC3(CN(C(=O)N4c5ccc(Cl)cc5OCC4C)C3)C2)nc1` (single isomer, unassigned) [20-13-B]: in test [1], the 50% inhibitory concentration (IC50) is less than 100 nM.

On to `CC1COc2cc(Cl)ccc2N1C(=O)N1CC2(C1)CN(c1cc(=O)n(C)cn1)C2` (single isomer, unassigned) [20-14-B], for which the IC50 in test [1] is less than 100 nM.

`CC1COc2cc(Cl)ccc2N1C(=O)N1CC2(C1)CN(c1nn(C)c3ncccc13)C2` (single isomer, unassigned) [20-15-B]: the IC50 in test [1] was less than 100 nM; in test [2] it was 500 to 1000 nM.

Consider `Cc1cccc(N2CC3(CN(C(=O)N4CCOc5cc(Cl)ccc54)C3)C2)n1` [1-3], for which the IC50 in test [1] is less than 100 nM; in test [2], 500 to 1000 nM.

With `O=C(N1CC2(C1)CN(c1cnc(F)cn1)C2)N1CCOc2cc(Cl)ccc21` [1-18], the concentration for half-maximal inhibition (IC50) in test [1] was less than 100 nM.

As to `Cc1cnc(N2CC3(CN(C(=O)N4CCOc5cc(Cl)ccc54)C3)C2)cn1` [1-20], the IC50 in test [1] was less than 100 nM.

As to `Cc1cncc(N2CC3(CN(C(=O)N4CCOc5cc(Cl)ccc54)C3)C2)n1` [1-22], the IC50 is less than 100 nM in test [1] and not below 1000 nM in test [2].

As for `Cc1nc(N2CC3(CN(C(=O)N4CCOc5cc(Cl)ccc54)C3)C2)ccc1F` [1-30], the IC50 is less than 100 nM in test [1] and 500 to 1000 nM in test [2].

Regarding `N#Cc1cccc(N2CC3(CN(C(=O)N4CCOc5cc(Cl)ccc54)C3)C2)n1` [1-39], the results for the IC50 in test [1] and in test [2] were less than 100 nM and 100 to 500 nM, respectively.

With `COc1nccnc1N1CC2(CN(C(=O)N3CCOc4cc(Cl)ccc43)C2)C1` [1-43], the IC50 in test [1] is less than 100 nM.

For `Cc1cc(F)nc(N2CC3(CN(C(=O)N4CCOc5cc(Cl)ccc54)C3)C2)c1` [1-45], the half-maximal inhibitory concentration (IC50) in test [1] is less than 100 nM.

For `O=C(N1CC2(C1)CN(c1ccc(F)c(F)n1)C2)N1CCOc2cc(Cl)ccc21` [1-49], the concentration for half-maximal inhibition (IC50) in test [1] was less than 100 nM.

As to `O=C(N1CC2(C1)CN(c1cc(F)cc(F)n1)C2)N1CCOc2cc(Cl)ccc21` [1-51], the IC50 in test [1] is less than 100 nM; in test [2] it was not below 1000 nM.

With `N#Cc1ccnc(N2CC3(CN(C(=O)N4CCOc5cc(Cl)ccc54)C3)C2)c1` [1-53], the IC50 in test [1] is less than 100 nM.

For `CC1COc2cc(Cl)ccc2N1C(=O)N1CC2(C1)CN(c1ccccn1)C2` (centres unmarked) [1-60], the IC50 in test [1] and in test [2] was less than 100 nM in each case.

Regarding `O=C(N1CC2(C1)CN(c1ccc(F)cn1)C2)N1CCOc2cc(F)ccc21` [1-64], in test [1], the IC50 is less than 100 nM.

Take `CC1COc2cc(F)ccc2N1C(=O)N1CC2(C1)CN(c1ncccc1F)C2` (centres unmarked) [1-67]: the IC50 in test [1] is less than 100 nM; in test [2], 100 to 500 nM.

In the case of `COc1ccc(N2CC3(CN(C(=O)N4CCOc5cc(Cl)ccc54)C3)C2)nc1` [1-68], the half-inhibitory concentration (IC50) in test [1] was less than 100 nM.

On to `O=C(N1CC2(C1)CN(c1cccc(F)n1)C2)N1CCOc2cc(Cl)ccc21` [1-69], for which the IC50 is less than 100 nM in test [1] and not below 1000 nM in test [2].

Take `O=C(N1CC2(C1)CN(c1cc(F)ccn1)C2)N1CCOc2cc(Cl)ccc21` [1-70]: the half-maximal inhibitory concentration (IC50) in test [1] is less than 100 nM; in test [2], not below 1000 nM.

For the compound `O=C(N1CC2(C1)CN(c1cccnn1)C2)N1CCOc2cc(Cl)ccc21` [1-71], in test [1], the IC50 was less than 100 nM.

Regarding `O=C(N1CC2(C1)CN(c1cccnc1)C2)N1CCOc2cc(Cl)ccc21` [1-72], the IC50 in test [1] was less than 100 nM.

`CC1COc2cc(Cl)ccc2N1C(=O)N1CC2(C1)CN(c1noc3ccccc13)C2` (centres unmarked) [21-1, (6-(benzo[d]isoxazol-3-yl)-2,6-diazaspiro[3.3]heptan-2-yl)(7-chloro-3-methyl-2,3-dihydro-4H-benzo[b][1,4]oxazin-4-yl)methanone]: the IC50 in test [1] was less than 100 nM; in test [2] it was 500 to 1000 nM.

Take `CC1COc2cc(Cl)ccc2N1C(=O)N1CC2(C1)CN(c1ncccc1C#N)C2` (centres unmarked) [21-2]: the results for the IC50 in test [1] and in test [2] were less than 100 nM and 100 to 500 nM, respectively.

For the compound `Cc1cncc(N2CC3(CN(C(=O)N4c5ccc(Cl)cc5OCC4C)C3)C2)n1` (centres unmarked) [21-3], the half-inhibitory concentration (IC50) in test [1] and in test [2] was less than 100 nM throughout.

Take `Cc1cnnc(N2CC3(CN(C(=O)N4c5ccc(Cl)cc5OCC4C)C3)C2)c1` (centres unmarked) [21-4]: the half-maximal inhibitory concentration (IC50) in test [1] is less than 100 nM; in test [2] it was 500 to 1000 nM.

Regarding `CC1COc2cc(Cl)ccc2N1C(=O)N1CC2(C1)CN(c1ncncc1F)C2` (centres unmarked) [21-5], the concentration for half-maximal inhibition (IC50) in test [1] is less than 100 nM; in test [2], 100 to 500 nM.

Take `CC1COc2cc(Cl)ccc2N1C(=O)N1CC2(C1)CN(c1ccncn1)C2` (centres unmarked) [21-6]: the IC50 in test [1] is less than 100 nM; in test [2], 100 to 500 nM.

As to `Cc1nccc(N2CC3(CN(C(=O)N4c5ccc(Cl)cc5OCC4C)C3)C2)n1` (centres unmarked) [21-8], the IC50 was less than 100 nM in test [1] and 100 to 500 nM in test [2].

On to `CCc1cnc(N2CC3(CN(C(=O)N4c5ccc(Cl)cc5OCC4C)C3)C2)nc1` (centres unmarked) [21-9], for which the figures for the half-inhibitory concentration (IC50) in test [1] and in test [2] were less than 100 nM and not below 1000 nM, respectively.

For the compound `CC1COc2cc(Cl)ccc2N1C(=O)N1CC2(C1)CN(c1nccc(C(F)(F)F)n1)C2` (centres unmarked) [21-10], the IC50 in test [1] was less than 100 nM; in test [2], 500 to 1000 nM.

`Cc1cc(N2CC3(CN(C(=O)N4c5ccc(Cl)cc5OCC4C)C3)C2)ncn1` (centres unmarked) [21-11]: in test [1], the IC50 was less than 100 nM.
